Literature values in US7041851B2, “Fluorinated phenyl thiophenyl derivatives and their use for imaging serotonin transporters” (The Trustees of the University of Pennsylvania, priority 2002, dated 2006).

Target: T1, SERT (Rattus norvegicus, UniProt P31652)
T1 construct: from tissue; host or cells: rat brain in vivo (hypothalamus, striatum, hippocampus, cerebellum)
Details: comparison with [18F]ACF, hypothalamus region; cited from earlier work

T1 sequence (P31652 whole entry): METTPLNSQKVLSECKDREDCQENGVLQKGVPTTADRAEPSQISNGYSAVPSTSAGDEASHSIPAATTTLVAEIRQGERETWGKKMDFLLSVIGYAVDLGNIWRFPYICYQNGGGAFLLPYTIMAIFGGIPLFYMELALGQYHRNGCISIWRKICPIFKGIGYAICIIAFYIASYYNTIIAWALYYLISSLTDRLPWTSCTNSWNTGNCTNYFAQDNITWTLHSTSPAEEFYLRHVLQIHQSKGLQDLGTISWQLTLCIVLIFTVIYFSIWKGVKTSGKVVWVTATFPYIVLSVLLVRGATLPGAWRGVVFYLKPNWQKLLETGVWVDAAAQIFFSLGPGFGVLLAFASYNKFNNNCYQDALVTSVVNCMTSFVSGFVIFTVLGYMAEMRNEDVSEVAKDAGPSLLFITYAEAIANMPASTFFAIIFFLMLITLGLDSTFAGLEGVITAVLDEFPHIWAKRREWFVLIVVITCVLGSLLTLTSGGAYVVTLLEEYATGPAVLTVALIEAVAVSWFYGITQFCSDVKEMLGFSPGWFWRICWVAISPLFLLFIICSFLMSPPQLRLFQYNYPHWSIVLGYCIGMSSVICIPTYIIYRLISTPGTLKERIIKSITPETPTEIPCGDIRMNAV

In the case of `CN(C)Cc1ccccc1Sc1ccc([125I])cc1N` [[^125I]ADAM], the “Time of peak uptake” value is listed as 4 h.
